{"source": "patent US11203563B2", "about": "“Preparation of zinc linolenate, and application of zinc linolenate in preparing anti-helicobacter pylori drug” (NANJING MEDICAL UNIVERSITY, priority 2018, dated 2021)", "key": {"[1]": {"tested_on": "Bacillus cereus", "test": "MIC by microdilution method, non-Helicobacter pylori bacteria", "format": "cell-based", "design": "key: +: Bacterial growth; −: No bacterial growth", "conditions": "72 h", "experimental": "(§1) 2.2 Detection of minimum inhibitory concentration (MIC, 100 µL system) of zinc linolenate for non-Helicobacter pylori bacteria by microdilution method\n(§2) (1) Zinc linolenate (2 mg/mL) is prepared.\n(§3) (3) Bacterial solution preparation: the non-Helicobacter pylori grown in a log phase on a solid plate is taken to make a bacterial suspension with a BHI culture medium, the absorbance (OD600) is adjusted to 0.3 (1×10^8 CFU/mL), and the bacterial suspension is diluted 100 times to 1×10^6 CFU/mL for use.\n(§4) (4) Inoculation of bacterial solution: 10 μL of bacterial solution above is taken and added to the 1-8th wells (the concentration of the bacterial solution per well is about 1.0×10^5 CFU/mL). Culture is performed for 72 h to judge the result. The drug concentrations of the first-seventh wells are 128, 64, 32, 16, 8, 4, and 2 μg/mL, respectively.\n(§5) The experiment only makes sense when the bacteria obviously grow in the 8th well, i.e. the positive control well (without antibiotics). When a single drift occurs in the microdilution method, the maximum drug concentration that inhibits bacterial growth should be recorded. If there are multiple drifts, the results should not be reported and the experiment should be repeated. The experiment is repeated 3 times for each drug."}, "[2]": {"tested_on": "Enterococcus faecium (ATCC19434)", "test": "MIC by microdilution method, non-Helicobacter pylori bacteria", "format": "cell-based", "design": "key: +: Bacterial growth; −: No bacterial growth", "conditions": "72 h", "experimental": "as §1, §2, §3, §4, §5"}, "[3]": {"tested_on": "Klebsiella pneumoniae (YF173002)", "test": "MIC by microdilution method, non-Helicobacter pylori bacteria", "format": "cell-based", "design": "key: +: Bacterial growth; −: No bacterial growth", "conditions": "72 h", "experimental": "as §1, §2, §3, §4, §5"}, "[4]": {"tested_on": "Proteus mirabilis (YF163006)", "test": "MIC by microdilution method, non-Helicobacter pylori bacteria", "format": "cell-based", "design": "key: +: Bacterial growth; −: No bacterial growth", "conditions": "72 h", "experimental": "as §1, §2, §3, §4, §5"}, "[5]": {"tested_on": "Salmonella typhi (14028s)", "test": "MIC by microdilution method, non-Helicobacter pylori bacteria", "format": "cell-based", "design": "key: +: Bacterial growth; −: No bacterial growth", "conditions": "72 h", "experimental": "as §1, §2, §3, §4, §5"}, "[6]": {"tested_on": "Shigella dysenteriae", "test": "MIC by microdilution method, non-Helicobacter pylori bacteria", "format": "cell-based", "design": "key: +: Bacterial growth; −: No bacterial growth", "conditions": "72 h", "experimental": "as §1, §2, §3, §4, §5"}, "[7]": {"tested_on": "Staphylococcus aureus (ATCC6538)", "test": "MIC by microdilution method, non-Helicobacter pylori bacteria", "format": "cell-based", "design": "key: +: Bacterial growth; −: No bacterial growth", "conditions": "72 h", "experimental": "as §1, §2, §3, §4, §5"}, "[8]": {"test": "Blood biochemical indexes of liver and kidney functions, infected and treated mice", "conditions": "infected mice, therapeutic dose (omeprazole 138.2, amoxicillin 28.5, clarithromycin 14.3, zinc linolenate 24 mg/kg), intragastric, serum", "experimental": "(2) Animal administration: the experimental group is intragastrically administered. The group with omeprazole is administered with omeprazole first, and then administered with other drugs 30 min later. After the mice are administered with the drugs, the mice fast for 4 hours. Calculated according to an average of 20 g/mouse of the weight of mice, the dosage is: omeprazole 138.2 mg/kg, amoxicillin 28.5 mg/kg, clarithromycin 14.3 mg/kg, and zinc linolenate 24 mg/kg, once a day for 5 consecutive times. The negative control group is administered with a PBS solution with the same dosage and number of times as above.\n(3) Efficacy test: the mice in the infection group are weighed and the average weight is calculated on the 2 days after the drug is stopped. Blood is taken from the eyeballs and the mice are sacrificed by cervical dislocation. Stomach tissue is taken, and the isolation, culture and identification of Helicobacter pylori are the same as in 2.3.3 (3) and (4).\n(4) Efficacy test: the mice in the infection group are weighed 3 days after the drug is stopped, and the average weight is calculated. Blood is taken from the eyeballs, and the mice are sacrificed by cervical dislocation. Stomach, kidney, liver and spleen tissues are taken, pathologically sectioned and HE stained, and serum is tested for liver and kidney functions."}, "[9]": {"tested_on": "Ges-1 cells", "format": "cell-based", "excerpt": "(§6) 2.4.1 Cytotoxicity detection"}, "[10]": {"tested_on": "AGS cells", "experimental": "as §6\n(1) Ges-1 and AGS cell suspensions are prepared, and the concentration is adjusted to 1×10^6.\n(2) Inoculation into a 96-well plate: 100 μL is added per well, and 3 replicates is performed for the same sample.\n(3) Culture is performed for 12 hours in an incubator at 37° C.\n(4) 10 μL of zinc linolenate, 10 μL of linolenic acid, and 10 μL of zinc chloride are added respectively, and the working concentrations are 400 μg/mL, 300 μg/mL, 200 μg/mL, 100 μg/mL, and 0 μg/mL, respectively. A group added with drugs and without cells and a PBS control group are set.\n(5) Culture is performed for 12 hours in an incubator at 37° C.\n(6) 10 μL of CCK-8 is added, mixed by tapping and incubated for 4 hours.\n(7) The absorbance at 450 nm is measured, and the survival rate is calculated according to the formula: cell proliferation rate[(As−Ab)]/[(Ac−Ab)]×100%, wherein As are wells containing the cell culture medium, drugs, and CCK-8; Ac are wells containing the cell culture medium, CCK-8, and no drug; and Ab are wells containing no cells and drugs, but only the culture medium and CCK-8. A survival curve is established based on the survival rate."}}, "data": [{"molecule": "CC/C=C\\C/C=C\\C/C=C\\CCCCCCCC(=O)[O-].CC/C=C\\C/C=C\\C/C=C\\CCCCCCCC(=O)[O-].[Zn+2]", "note": "[zinc linolenate]", "values": [{"measurement": "Bacterial growth", "setting": "[1]; zinc linolenate 2 μg/ml", "value": "+"}, {"measurement": "Bacterial growth", "setting": "[1]; zinc linolenate 4 μg/ml", "value": "+"}, {"measurement": "Bacterial growth", "setting": "[1]; zinc linolenate 8 μg/ml", "value": "+"}, {"measurement": "Bacterial growth", "setting": "[1]; zinc linolenate 16 μg/ml", "value": "+"}, {"measurement": "Bacterial growth", "setting": "[1]; zinc linolenate 32 μg/ml", "value": "+"}, {"measurement": "Bacterial growth", "setting": "[1]; zinc linolenate 64 μg/ml", "value": "+"}, {"measurement": "Bacterial growth", "setting": "[1]; zinc linolenate 128 μg/ml", "value": "+"}, {"measurement": "Bacterial growth", "setting": "[2]; zinc linolenate 2 μg/ml", "value": "+"}, {"measurement": "Bacterial growth", "setting": "[2]; zinc linolenate 4 μg/ml", "value": "+"}, {"measurement": "Bacterial growth", "setting": "[2]; zinc linolenate 8 μg/ml", "value": "+"}, {"measurement": "Bacterial growth", "setting": "[2]; zinc linolenate 16 μg/ml", "value": "+"}, {"measurement": "Bacterial growth", "setting": "[2]; zinc linolenate 32 μg/ml", "value": "+"}, {"measurement": "Bacterial growth", "setting": "[2]; zinc linolenate 64 μg/ml", "value": "+"}, {"measurement": "Bacterial growth", "setting": "[2]; zinc linolenate 128 μg/ml", "value": "+"}, {"measurement": "Bacterial growth", "setting": "[3]; zinc linolenate 2 μg/ml", "value": "+"}, {"measurement": "Bacterial growth", "setting": "[3]; zinc linolenate 4 μg/ml", "value": "+"}, {"measurement": "Bacterial growth", "setting": "[3]; zinc linolenate 8 μg/ml", "value": "+"}, {"measurement": "Bacterial growth", "setting": "[3]; zinc linolenate 16 μg/ml", "value": "+"}, {"measurement": "Bacterial growth", "setting": "[3]; zinc linolenate 32 μg/ml", "value": "+"}, {"measurement": "Bacterial growth", "setting": "[3]; zinc linolenate 64 μg/ml", "value": "+"}, {"measurement": "Bacterial growth", "setting": "[3]; zinc linolenate 128 μg/ml", "value": "−"}, {"measurement": "Bacterial growth", "setting": "[4]; zinc linolenate 2 μg/ml", "value": "+"}, {"measurement": "Bacterial growth", "setting": "[4]; zinc linolenate 4 μg/ml", "value": "+"}, {"measurement": "Bacterial growth", "setting": "[4]; zinc linolenate 8 μg/ml", "value": "+"}, {"measurement": "Bacterial growth", "setting": "[4]; zinc linolenate 16 μg/ml", "value": "+"}, {"measurement": "Bacterial growth", "setting": "[4]; zinc linolenate 32 μg/ml", "value": "+"}, {"measurement": "Bacterial growth", "setting": "[4]; zinc linolenate 64 μg/ml", "value": "+"}, {"measurement": "Bacterial growth", "setting": "[4]; zinc linolenate 128 μg/ml", "value": "+"}, {"measurement": "Bacterial growth", "setting": "[5]; zinc linolenate 2 μg/ml", "value": "+"}, {"measurement": "Bacterial growth", "setting": "[5]; zinc linolenate 4 μg/ml", "value": "+"}, {"measurement": "Bacterial growth", "setting": "[5]; zinc linolenate 8 μg/ml", "value": "+"}, {"measurement": "Bacterial growth", "setting": "[5]; zinc linolenate 16 μg/ml", "value": "+"}, {"measurement": "Bacterial growth", "setting": "[5]; zinc linolenate 32 μg/ml", "value": "+"}, {"measurement": "Bacterial growth", "setting": "[5]; zinc linolenate 64 μg/ml", "value": "+"}, {"measurement": "Bacterial growth", "setting": "[5]; zinc linolenate 128 μg/ml", "value": "+"}, {"measurement": "Bacterial growth", "setting": "[6]; zinc linolenate 2 μg/ml", "value": "+"}, {"measurement": "Bacterial growth", "setting": "[6]; zinc linolenate 4 μg/ml", "value": "+"}, {"measurement": "Bacterial growth", "setting": "[6]; zinc linolenate 8 μg/ml", "value": "+"}, {"measurement": "Bacterial growth", "setting": "[6]; zinc linolenate 16 μg/ml", "value": "+"}, {"measurement": "Bacterial growth", "setting": "[6]; zinc linolenate 32 μg/ml", "value": "+"}, {"measurement": "Bacterial growth", "setting": "[6]; zinc linolenate 64 μg/ml", "value": "+"}, {"measurement": "Bacterial growth", "setting": "[6]; zinc linolenate 128 μg/ml", "value": "−"}, {"measurement": "Bacterial growth", "setting": "[7]; zinc linolenate 2 μg/ml", "value": "+"}, {"measurement": "Bacterial growth", "setting": "[7]; zinc linolenate 4 μg/ml", "value": "+"}, {"measurement": "Bacterial growth", "setting": "[7]; zinc linolenate 8 μg/ml", "value": "+"}, {"measurement": "Bacterial growth", "setting": "[7]; zinc linolenate 16 μg/ml", "value": "+"}, {"measurement": "Bacterial growth", "setting": "[7]; zinc linolenate 32 μg/ml", "value": "+"}, {"measurement": "Bacterial growth", "setting": "[7]; zinc linolenate 64 μg/ml", "value": "+"}, {"measurement": "Bacterial growth", "setting": "[7]; zinc linolenate 128 μg/ml", "value": "+"}, {"measurement": "Alanine aminotransferase", "setting": "[8]", "value": 50.00, "unit": "U/L"}, {"measurement": "Aspartate aminotransferase", "setting": "[8]", "value": 192.33, "unit": "U/L"}, {"measurement": "Blood urea nitrogen", "setting": "[8]", "value": 14.97, "unit": "mmol/L"}, {"measurement": "Creatinine", "setting": "[8]", "value": 18.33, "unit": "µmol/L"}, {"measurement": "toxicity compared with linolenic acid", "setting": "[9]", "value": "smaller than that of linolenic acid"}, {"measurement": "toxicity compared with linolenic acid", "setting": "[10]", "value": "smaller than that of linolenic acid"}]}]}
